Source: patent publication US9133207B2, “Tetrandrine derivatives with substituted 5-carbon, preparation method and use thereof” (Hangzhou Bensheng Pharmaceutical Co., Ltd., priority 2011, dated 2015)
Values after ≈ are worked out from the molar mass of the structure shown.

Legend:
[1] = test system: U87 MG (malignant glioma cell); test: Solid tumor cell growth inhibition, MTT, 72 h (Example 7); type: cell-based; details: Homo sapiens, U-87 MG
Method in brief: (§1)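 MTT viability after 72 h compound exposure; 4000 cells/well seeded 24 h beforehand in DMEM high glucose, 10% FBS, 37 °C, 5% CO2. Untreated control taken as 100%.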

[2] = test system: CNE (nasopharyngeal carcinoma cell); test: as above; type: cell-based; details: Homo sapiens
Method in brief: as §1

[3] = test system: SK-OV-3 (ovarian cancer cell); test: as above; type: cell-based; details: Homo sapiens
Method in brief: as §1

[4] = test system: MGC 803 (human gastric cancer cell); test: as above; type: cell-based; details: Homo sapiens
Method in brief: as §1

[5] = test system: Hela (human cervical cancer cell); test: as above; type: cell-based; details: Homo sapiens; 72 h, MTT, Hela
Method in brief: as §1

[6] = test system: Huh7 (human liver cancer cell); test: as above; type: cell-based; details: Homo sapiens; 72 h, MTT, Huh-7
Method in brief: as §1

[7] = test system: RKO (human colon adenocarcinoma cell); test: as above; type: cell-based; details: Homo sapiens; 72 h, MTT, RKO
Method in brief: as §1

[8] = test system: A549 (human lung cancer); test: as above; type: cell-based; details: Homo sapiens; 72 h, MTT, A549
Method in brief: as §1

[9] = test system: Becap37 (human breast cancer cell); test: as above; type: cell-based; details: Homo sapiens; 72 h, MTT, Becap-37
Method in brief: as §1

[10] = test system: MG63 (osteosarcoma); test: as above; type: cell-based, human; details: Homo sapiens; 72 h, MTT, MG-63
Method in brief: as §1

[11] = test system: PC-3 (prostate cancer); test: as above; type: cell-based, human; details: Homo sapiens; 72 h, MTT, PC-3
Method in brief: as §1

[12] = test system: Hep-2 (laryngeal carcinoma); test: as above; type: cell-based, human; details: Homo sapiens; 72 h, MTT, Hep 2
Method in brief: as §1

[13] = test system: PANC-1 (pancreatic cancer); test: as above; type: cell-based, human; details: Homo sapiens; 72 h, MTT, PANC-1
Method in brief: as §1

[14] = test system: CaES-17 (esophageal cancer cell); test: as above; type: cell-based, human; details: Homo sapiens, CaEs17; 72 h, MTT, CAES-17
Method in brief: as §1

[15] = test system: Kasumi-1 (acute myeloid leukemia M2 type, AML-M2); test: Leukemia cell growth inhibition, MTT, 72 h (Example 5); type: cell-based, human; details: Homo sapiens, Kasumi 1
Method in brief: (§2)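 6000 cells per well were seeded in RPMI 1640 with 10% FBS, exposed to graded concentrations of 5-substituted tetrandrine derivatives, and held 72 hours at 37° C, 5% CO2. Viable cell concentration was then measured by MTT.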

[16] = test system: H9 (acute lymphoblastic leukemia, ALL); test: as above; type: cell-based, human; details: Homo sapiens; 72 h, MTT
Method in brief: as §2

[17] = test system: Jurkat (acute lymphoblastic leukemia, ALL); test: as above; type: cell-based, human; details: Homo sapiens, Jurkat; 72 h, MTT
Method in brief: as §2

[18] = test system: K562/adr (drug-resistant, chronic myeloid leukemia, CML); test: as above; type: cell-based, human; details: Homo sapiens, K562/Adr; 72 h, MTT
Method in brief: as §2

[19] = test system: NB4 (acute promyelocytic leukemia, AML); test: as above; type: cell-based, human; details: Homo sapiens; 72 h, MTT
Method in brief: as §2

[20] = test system: RPMI8226 (multiple myeloma); test: Multiple myeloma cell growth inhibition, MTT, 72 h (Example 6); type: cell-based, human; details: Homo sapiens, RPMI-8226; 72 h, MTT, RPMI8226
Method in brief: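 RPMI8226 cells (6000 per well) in RPMI 1640 with 10% FBS were exposed to a range of tetrandrine derivative concentrations for 72 h at 37 °C under 5% CO2. Viable cell concentration was then measured by MTT.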

IC50 [1] | IC90 [1] | IC50 [2] | IC90 [2] | IC50 [3] | IC90 [3] | IC50 [4] | IC90 [4] | IC50 [5] | IC90 [5] | IC50 [6] | IC90 [6] | IC50 [7] | IC90 [7] | IC50 [8] | IC90 [8] | IC50 [9] | IC90 [9] | IC50 [10] | IC90 [10] | SMILES | also measured
0.3 µg/mL (≈ 0.401 µM) | 1.16 µg/mL (≈ 1.55 µM) | 1.6 µg/mL (≈ 2.14 µM) | 3.7 µg/mL (≈ 4.94 µM) | 2 µg/mL (≈ 2.67 µM) | > 16 µg/mL | 1.38 µg/mL (≈ 1.84 µM) | 6.55 µg/mL (≈ 8.75 µM) | 1.69 µg/mL (≈ 2.26 µM) | 4.1 µg/mL (≈ 5.47 µM) | 1.31 µg/mL (≈ 1.75 µM) | 2.46 µg/mL (≈ 3.28 µM) | 0.69 µg/mL (≈ 0.921 µM) | 1.75 µg/mL (≈ 2.34 µM) | 3.2 µg/mL (≈ 4.27 µM) | 16 µg/mL (≈ 21.4 µM) | 1.1 µg/mL (≈ 1.47 µM) | 4.5 µg/mL (≈ 6.01 µM) | 0.9 µg/mL (≈ 1.2 µM) | 1.9 µg/mL (≈ 2.54 µM) | CCN1CCN(Cc2c3c4c(c(OC)c2OC)Oc2cc5c(cc2OC)CCN(C)[C@H]5Cc2ccc(cc2)Oc2cc(ccc2OC)C[C@@H]4N(C)CC3)CC1 [BS-TE-342] | IC50 [11]: 1.79 µg/mL (≈ 2.39 µM); IC90 [11]: 2.4 µg/mL (≈ 3.2 µM); IC50 [12]: 1.86 µg/mL (≈ 2.48 µM); IC90 [12]: 7.19 µg/mL (≈ 9.6 µM); IC50 [13]: 1.92 µg/mL (≈ 2.56 µM); IC90 [13]: 6.84 µg/mL (≈ 9.13 µM); IC50 [14]: 2.21 µg/mL (≈ 2.95 µM); IC90 [14]: 12.4 µg/mL (≈ 16.5 µM); IC50 [15]: 0.75 µg/mL (≈ 1 µM); IC90 [15]: 3.1 µg/mL (≈ 4.14 µM); IC50 [16]: 1.11 µg/mL (≈ 1.48 µM); IC90 [16]: 2.32 µg/mL (≈ 3.1 µM); IC50 [17]: 0.8 µg/mL (≈ 1.07 µM); IC90 [17]: 4.05 µg/mL (≈ 5.41 µM); IC50 [18]: 0.55 µg/mL (≈ 0.734 µM); IC90 [18]: 2.15 µg/mL (≈ 2.87 µM); IC50 [19]: 0.6 µg/mL (≈ 0.801 µM); IC90 [19]: 1.6 µg/mL (≈ 2.14 µM); IC50 [20]: 0.006 µg/mL (≈ 0.00801 µM); IC90 [20]: 0.45 µg/mL (≈ 0.601 µM)
1.09 µg/mL (≈ 1.47 µM) | 2.55 µg/mL (≈ 3.43 µM) | 1.32 µg/mL (≈ 1.77 µM) | 3.33 µg/mL (≈ 4.48 µM) | 8 µg/mL (≈ 10.8 µM) | > 16 µg/mL | 2.15 µg/mL (≈ 2.89 µM) | 9.02 µg/mL (≈ 12.1 µM) | 1.49 µg/mL (≈ 2 µM) | 3.45 µg/mL (≈ 4.64 µM) | 1.13 µg/mL (≈ 1.52 µM) | 1.66 µg/mL (≈ 2.23 µM) | 0.26 µg/mL (≈ 0.35 µM) | 0.6 µg/mL (≈ 0.807 µM) | 5.5 µg/mL (≈ 7.39 µM) | 15.5 µg/mL (≈ 20.8 µM) | 1.9 µg/mL (≈ 2.55 µM) | 4.9 µg/mL (≈ 6.59 µM) | 1.26 µg/mL (≈ 1.69 µM) | 3.07 µg/mL (≈ 4.13 µM) | COc1ccc2cc1Oc1ccc(cc1)C[C@H]1c3cc(c(OC)cc3CCN1C)Oc1c(OC)c(OC)c(COCc3cccnc3)c3c1[C@H](C2)N(C)CC3 [BS-TE-411] | IC50 [11]: 2.41 µg/mL (≈ 3.24 µM); IC90 [11]: 5.56 µg/mL (≈ 7.47 µM); IC50 [12]: 2.15 µg/mL (≈ 2.89 µM); IC90 [12]: 5.69 µg/mL (≈ 7.65 µM); IC50 [13]: 2.29 µg/mL (≈ 3.08 µM); IC90 [13]: 8.92 µg/mL (≈ 12 µM); IC50 [14]: 2.76 µg/mL (≈ 3.71 µM); IC90 [14]: 11.8 µg/mL (≈ 15.8 µM); IC50 [15]: 0.75 µg/mL (≈ 1.01 µM); IC90 [15]: 3.58 µg/mL (≈ 4.81 µM); IC50 [16]: 1.23 µg/mL (≈ 1.65 µM); IC90 [16]: 2.5 µg/mL (≈ 3.36 µM); IC50 [17]: 1 µg/mL (≈ 1.34 µM); IC90 [17]: 8.5 µg/mL (≈ 11.4 µM); IC50 [18]: 0.79 µg/mL (≈ 1.06 µM); IC90 [18]: 3.59 µg/mL (≈ 4.83 µM); IC50 [19]: 0.7 µg/mL (≈ 0.941 µM); IC90 [19]: 2.6 µg/mL (≈ 3.5 µM); IC50 [20]: 0.26 µg/mL (≈ 0.35 µM); IC90 [20]: 1.35 µg/mL (≈ 1.81 µM)
3.14 µg/mL (≈ 4.12 µM) | 8 µg/mL (≈ 10.5 µM) | 6.97 µg/mL (≈ 9.14 µM) | 12.2 µg/mL (≈ 16 µM) | 7.5 µg/mL (≈ 9.83 µM) | > 16 µg/mL | 5.78 µg/mL (≈ 7.58 µM) | 8 µg/mL (≈ 10.5 µM) | 6.52 µg/mL (≈ 8.55 µM) | 13 µg/mL (≈ 17.1 µM) | 3.54 µg/mL (≈ 4.64 µM) | 9.62 µg/mL (≈ 12.6 µM) | 6.04 µg/mL (≈ 7.92 µM) | 9.22 µg/mL (≈ 12.1 µM) | 11.9 µg/mL (≈ 15.6 µM) | > 16 µg/mL | 8.3 µg/mL (≈ 10.9 µM) | 15 µg/mL (≈ 19.7 µM) | 6.2 µg/mL (≈ 8.13 µM) | 10.4 µg/mL (≈ 13.6 µM) | COc1ccc2cc1Oc1ccc(cc1)C[C@H]1c3cc(c(OC)cc3CCN1C)Oc1c(OC)c(OC)c(COC(=O)c3cccs3)c3c1[C@H](C2)N(C)CC3 [BS-TE-215] | IC50 [11]: 7.08 µg/mL (≈ 9.28 µM); IC90 [11]: 9 µg/mL (≈ 11.8 µM); IC50 [12]: 9.9 µg/mL (≈ 13 µM); IC90 [12]: 22.2 µg/mL (≈ 29.1 µM); IC50 [13]: 5.11 µg/mL (≈ 6.7 µM); IC90 [13]: 15 µg/mL (≈ 19.7 µM); IC50 [14]: 8.69 µg/mL (≈ 11.4 µM); IC90 [14]: 27 µg/mL (≈ 35.4 µM); IC50 [15]: 4.92 µg/mL (≈ 6.45 µM); IC90 [15]: 15.5 µg/mL (≈ 20.3 µM); IC50 [16]: 4.86 µg/mL (≈ 6.37 µM); IC90 [16]: 7.6 µg/mL (≈ 9.96 µM); IC50 [17]: 4.64 µg/mL (≈ 6.08 µM); IC90 [17]: 10.9 µg/mL (≈ 14.3 µM); IC50 [18]: 2.18 µg/mL (≈ 2.86 µM); IC90 [18]: 8.89 µg/mL (≈ 11.7 µM); IC50 [19]: 2.6 µg/mL (≈ 3.41 µM); IC90 [19]: 4 µg/mL (≈ 5.24 µM); IC50 [20]: 0.87 µg/mL (≈ 1.14 µM); IC90 [20]: 5.13 µg/mL (≈ 6.72 µM)
